Laboratory results: patent US12552783B2, “Modulators of proteolysis and associated methods of use” (Arvinas Operations, Inc., priority 2018, dated 2026)

Target: KRas (Homo sapiens, UniProt P01116, G12C)
Assay: KRas degradation in NCI-H2030 cells by Western blot, normalized to GAPDH (data of Table 14)
Type: cell-based
Parameters: host or cells: NCI-H2030
Conditions: for Dmax: NCI-H2030
Description: Cell Lines, Antibodies, and Reagents. NCI-H2030 (CRL-5914) and SW1573 (CRL-2170) cells were purchased from ATCC. Both cell lines are homozygous for the G12C mutation in KRas. NCI-H2030 cells were cultured in RPMI-1640 medium containing 1% penicillin-streptomycin and 10% fetal bovine serum (FBS). SW1573 cells were cultured in DMEM containing 1% penicillin-streptomycin and 10% FBS. The KRas detection antibody (Cat. No. LS-C175665) was purchased from LifeSpan Biosciences and was used at a dilution of 1:2000. GAPDH was detected using an antibody purchased from Cell Signaling Technology (Cat. No. 5174) and was diluted 1:3000. Secondary anti-mouse and anti-rabbit detection antibodies were purchased from Cell Signaling Technology (Cat. Nos. 7076 and 7074, respectively).
Compound Treatment and Western Blotting of the Data of Table 14. Either NCI-H2030 or SW1573 cells were plated in 12-well plates and allowed to adhere overnight at 37° C. in an incubator containing 5% CO2. The following day, the medium was replaced with the appropriate medium lacking FBS to induce starvation. Cells were returned to the incubator for an additional 24 hours following media exchange. […] Cells were treated with VHL-based compounds for 24 hours and all other compounds for 72 hours. Following treatment, cells were lysed in RIPA buffer (Thermo Fisher Cat. No. 89900) containing phosphatase (Thermo Fisher Cat. No. 1861277) and protease (Thermo Fisher Cat. No. 78429) inhibitor cocktails. Lysates were cleared at 13,000 rpm for 15 minutes and supernatants were assayed for total protein concentration using the Pierce BCA assay system (Thermo Fisher Cat. No. 23225). For each sample, 10 μg total protein was resolved on a 12% Bis-Tris gel and then transferred to a nitrocellulose membrane. After blocking in 3% BSA in TBST (Tris-buffered Saline with 0.1% Tween-20) for 1 hour at room temperature, membranes were probed with the primary antibody (LS Bio Cat. No. LS-C175665) overnight at 4° C. After incubation with the secondary antibody, the following day membranes were visualized using the SuperSignal™ West Femto substrate (Thermo Fisher Cat. No. 34095). The KRas signal in each lane was normalized to GAPDH and percent degradation was either estimated as less than 25% by visual inspection (C in Table 13) or quantitated relative to the DMSO control lane using BIO-RAD Image Lab 5.2.1, and all data was plotted using GraphPad PRISM 6.07.
DC50 is the half-maximal degradation concentration—i.e., the concentration at which 50% degradation is observed. DMax is the maximum degradation efficacy is achieved—i.e., the maximal degradation observed) degradation data.

Row | SMILES | Percent Degradation at Indicated Concentration (μM) (H2030 cells, 3 μM) | Percent Degradation at Indicated Concentration (μM): 0.3 (H2030 cells, 0.3 μM) | Percent Degradation at Indicated Concentration (μM): 1 (H2030 cells, 1 μM) | Percent Degradation at Indicated Concentration (μM): 3 (H2030 cells, 3 μM) | Dmax (H2030 cells) [%] | also measured
1 | CN(CCOCCOc1ccc2c(c1)C(=O)N(C1CCC(=O)NC1=O)C2=O)C(=O)CCNc1nc(N2CCN(C(=O)C(O)O)CC2)c2cc(Cl)c(-c3c(O)cccc3F)c(F)c2n1 [compound 149, 3-(((S)-6-chloro-4-(4-(2,2-dihydroxyacetyl)piperazin-1-yl)-8-fluoro-7-(2-fluoro-6-hydroxyphenyl)quinazolin-2-yl)amino)-N-(2-(2-((2-(2,6-dioxopiperidin-3-yl)-1,3-dioxoisoindolin-5-yl)oxy)ethoxy)ethyl)-N-methylpropanamide] | C (Percent Degradation: C ≤ 35) |  |  |  |  | 
2 | CN(CCOCCOCCOc1ccc2c(c1)C(=O)N(C1CCC(=O)NC1=O)C2=O)C(=O)CCNc1nc(N2CCN(C(=O)C(O)O)CC2)c2cc(Cl)c(-c3c(O)cccc3F)c(F)c2n1 [compound 151, 3-(((S)-6-chloro-4-(4-(2,2-dihydroxyacetyl)piperazin-1-yl)-8-fluoro-7-(2-fluoro-6-hydroxyphenyl)quinazolin-2-yl)amino)-N-(2-(2-(2-((2-(2,6-dioxopiperidin-3-yl)-1,3-dioxoisoindolin-5-yl)oxy)ethoxy)ethoxy)ethyl)-N-methylpropanamide] | C (Percent Degradation: C ≤ 35) |  |  |  |  | 
3 | C=CC(=O)N1CCN(c2nc(NCCC(=O)N(C)CCOCCOc3ccc4c(c3)CN(C3CCC(=O)NC3=O)C4=O)nc3c(F)c(-c4cc(O)cc5ccccc45)c(Cl)cc23)CC1 (stereo not drawn) [compound 65, 3-((4-(4-acryloylpiperazin-1-yl)-6-chloro-8-fluoro-7-(3-hydroxynaphthalen-1-yl)quinazolin-2-yl)amino)-N-(2-(2-((2-(2,6-dioxopiperidin-3-yl)-1-oxoisoindolin-5-yl)oxy)ethoxy)ethyl)-N-methylpropanamide] |  | C (C ≤ 35) | C (C ≤ 35) | C (C ≤ 35) | ≤ 35 | 
4 | CCC(=O)N1CCN(c2nc(NCCC(=O)N(C)CCNc3cccc4c3C(=O)N(C3CCC(=O)NC3=O)C4=O)nc3c(F)c(-c4cc(O)cc5ccccc45)c(Cl)cc23)CC1 (stereo not drawn) [compound 41, 3-((6-chloro-8-fluoro-7-(3-hydroxynaphthalen-1-yl)-4-(4-propionylpiperazin-1-yl)quinazolin-2-yl)amino)-N-(2-((2-(2,6-dioxopiperidin-3-yl)-1,3-dioxoisoindolin-4-yl)amino)ethyl)-N-methylpropanamide] |  | C (C ≤ 35) | C (C ≤ 35) | C (C ≤ 35) | ≤ 35 | 
5 | C=CC(=O)N1CCN(c2nc(NCCC(=O)N(C)CCOCCOCCOc3ccc4c(c3)C(=O)N(C3CCC(=O)NC3=O)C4=O)nc3c(F)c(-c4cc(O)cc5ccccc45)c(Cl)cc23)CC1 (stereo not drawn) [compound 61, 3-((4-(4-acryloylpiperazin-1-yl)-6-chloro-8-fluoro-7-(3-hydroxynaphthalen-1-yl)quinazolin-2-yl)amino)-N-(2-(2-(2-((2-(2,6-dioxopiperidin-3-yl)-1,3-dioxoisoindolin-5-yl)oxy)ethoxy)ethoxy)ethyl)-N-methylpropanamide] |  | C (C ≤ 35) | C (C ≤ 35) |  | ≤ 35 | Percent Degradation at Indicated Concentration (μM): 0.1 (H2030 cells, 0.1 μM): C (C ≤ 35)
6 | C=CC(=O)N1CCN(c2nc(O[C@H](C)CN3CCC(OCCOc4ccc5c(c4)C(=O)N(C4CCC(=O)NC4=O)C5=O)CC3)nc3c2CCN(c2cc(O)cc4ccccc24)C3)CC1 (stereo partly drawn) [compound 416, 5-(2-((1-((R)-2-((4-(4-acryloylpiperazin-1-yl)-7-(3-hydroxynaphthalen-1-yl)-5,6,7,8-tetrahydropyrido[3,4-d]pyrimidin-2-yl)oxy)propyl)piperidin-4-yl)oxy)ethoxy)-2-(2,6-dioxopiperidin-3-yl)isoindoline-1,3-dione] | C (Percent Degradation: C ≤ 35) |  |  |  |  | Percent Degradation at Indicated Concentration (μM) (H2030 cells, 0.3 μM): C (Percent Degradation: C ≤ 35); Percent Degradation at Indicated Concentration (μM) (H2030 cells, 1 μM): C (Percent Degradation: C ≤ 35)
7 | C=CC(=O)N1CCN(c2nc(NCCC(=O)N(C)CCOCCOCCOc3cc(-c4scnc4C)ccc3CNC(=O)[C@@H]3C[C@@H](O)CN3C(=O)[C@@H](c3cc(C)no3)C(C)C)nc3c(F)c(-c4cc(O)cc5ccccc45)c(Cl)cc23)CC1 [compound 341, (2S,4R)-N-(2-(2-(2-(2-(3-((4-(4-acryloylpiperazin-1-yl)-6-chloro-8-fluoro-7-(3-hydroxynaphthalen-1-yl)quinazolin-2-yl)amino)-N-methylpropanamido)ethoxy)ethoxy)ethoxy)-4-(4-methylthiazol-5-yl)benzyl)-4-hydroxy-1-((R)-3-methyl-2-(3-methylisoxazol-5-yl)butanoyl)pyrrolidine-2-carboxamide] |  |  |  |  |  | Percent Degradation at Indicated Concentration (μM) (H2030, 0.3 μM): C (Percent Degradation: C ≤ 35); Percent Degradation at Indicated Concentration (μM) (H2030, 1 μM): C (Percent Degradation: C ≤ 35); Percent Degradation at Indicated Concentration (μM) (H2030, 3 μM): C (Percent Degradation: C ≤ 35); Dmax: ≤ 35%
8 | C=CC(=O)N1CCN(c2nc(NCCC(=O)N(C)CCOc3cc(-c4scnc4C)ccc3CNC(=O)[C@@H]3C[C@@H](O)CN3C(=O)[C@H](c3cc(C)no3)C(C)C)nc3c(F)c(-c4cc(O)cc5ccccc45)c(Cl)cc23)CC1 [compound 338, (2S,4R)-N-(2-(2-(3-((4-(4-acryloylpiperazin-1-yl)-6-chloro-8-fluoro-7-(3-hydroxynaphthalen-1-yl)quinazolin-2-yl)amino)-N-methylpropanamido)ethoxy)-4-(4-methylthiazol-5-yl)benzyl)-4-hydroxy-1-((S)-3-methyl-2-(3-methylisoxazol-5-yl)butanoyl)pyrrolidine-2-carboxamide] |  |  |  |  |  | Percent Degradation at Indicated Concentration (μM) (H2030, 0.3 μM): C (Percent Degradation: C ≤ 35); Percent Degradation at Indicated Concentration (μM) (H2030, 1 μM): C (Percent Degradation: C ≤ 35); Percent Degradation at Indicated Concentration (μM) (H2030, 3 μM): C (Percent Degradation: C ≤ 35); Dmax: ≤ 35%
9 | CCC(=O)N1CCN(c2nc(NCCC(=O)N(C)CCOCCOCC(=O)N[C@H](C(=O)N3C[C@H](O)C[C@H]3C(=O)N[C@@H](C)c3ccc(-c4scnc4C)cc3)C(C)(C)C)nc3c(F)c(-c4cc(O)cc5ccccc45)c(Cl)cc23)CC1 [compound 187, (2S,4R)-1-((2S)-2-(tert-butyl)-15-((6-chloro-8-fluoro-7-(3-hydroxynaphthalen-1-yl)-4-(4-propionylpiperazin-1-yl)quinazolin-2-yl)amino)-12-methyl-4,13-dioxo-6,9-dioxa-3,12-diazapentadecanoyl)-4-hydroxy-N-((S)-1-(4-(4-methylthiazol-5-yl)phenyl)ethyl)pyrrolidine-2-carboxamide] |  | C (C ≤ 35) | C (C ≤ 35) | C (C ≤ 35) | ≤ 35 | 
10 | CCC(=O)N1CCN(c2nc(NCCC(=O)N(C)CCOCCOc3ccc4c(c3)CN(C3CCC(=O)NC3=O)C4=O)nc3c(F)c(-c4cc(O)cc5ccccc45)c(Cl)cc23)CC1 (stereo not drawn) [compound 51, 3-((6-chloro-8-fluoro-7-(3-hydroxynaphthalen-1-yl)-4-(4-propionylpiperazin-1-yl)quinazolin-2-yl)amino)-N-(2-(2-((2-(2,6-dioxopiperidin-3-yl)-1-oxoisoindolin-5-yl)oxy)ethoxy)ethyl)-N-methylpropanamide] |  | C (C ≤ 35) | C (C ≤ 35) | C (C ≤ 35) | ≤ 35 | 
